PubChem BioAssay AID330 (DTP/NCI, 2004)
Several values for one entry are separate records, joined by “and”; a condition that tells them apart may be missing. Equal entries are not always repeated. Inconclusive results and toxic doses are left out.

Test system: P388 leukemia ip, CD2F1 mice, survival T/C
Experiment: NCI In Vivo Anticancer Drug Screen. Data for tumor model P388 Leukemia (intraperitoneal) in CD2F1 (CDF1) mice
Conditions: endpoint: median survival time, higher = longer survival
Procedure, shortened: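 Mice carrying the transplanted tumor received test compound or vehicle. Survival was recorded in each group, and the value is the treated-group measurement divided by that of the vehicle-treated control group.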

[1] = dose: 60.0 mg/kg/injection, schedule: Q01DX005 (ip), vehicle: saline with Tween-80
[2] = dose: 120.0 mg/kg/injection, schedule: Q01DX005 (ip), vehicle: saline with Tween-80
[3] = dose: 240.0 mg/kg/injection, schedule: Q01DX005 (ip), vehicle: saline with Tween-80
[4] = dose: 50.0 mg/kg/injection, schedule: Q01DX009 (ip), vehicle: Klucel (hydroxypropylcellulose) (HPC)
[5] = dose: 100.0 mg/kg/injection, schedule: Q01DX009 (ip), vehicle: Klucel (hydroxypropylcellulose) (HPC)
[6] = dose: 200.0 mg/kg/injection, schedule: Q01DX009 (ip), vehicle: Klucel (hydroxypropylcellulose) (HPC)
[7] = dose: 25.0 mg/kg/injection, schedule: Q01DX005 (ip), vehicle: Klucel (hydroxypropylcellulose) (HPC)
[8] = dose: 50.0 mg/kg/injection, schedule: Q01DX005 (ip), vehicle: Klucel (hydroxypropylcellulose) (HPC)
[9] = dose: 100.0 mg/kg/injection, schedule: Q01DX005 (ip), vehicle: Klucel (hydroxypropylcellulose) (HPC)
[10] = dose: 50.0 mg/kg/injection, schedule: Q01DX009 (ip), vehicle: saline with Tween-80
[11] = dose: 100.0 mg/kg/injection, schedule: Q01DX009 (ip), vehicle: saline with Tween-80
[12] = dose: 200.0 mg/kg/injection, schedule: Q01DX009 (ip), vehicle: saline with Tween-80
[13] = dose: 100.0 mg/kg/injection, schedule: Q04DX002 (ip), vehicle: saline with Tween-80
[14] = dose: 200.0 mg/kg/injection, schedule: Q04DX002 (ip), vehicle: saline with Tween-80
[15] = dose: 12.5 mg/kg/injection, schedule: Q01DX009 (ip), vehicle: distilled water + Tween-80
[16] = dose: 25.0 mg/kg/injection, schedule: Q01DX009 (ip), vehicle: distilled water + Tween-80
[17] = dose: 50.0 mg/kg/injection, schedule: Q01DX009 (ip), vehicle: distilled water + Tween-80
[18] = dose: 100.0 mg/kg/injection, schedule: Q01DX009 (ip), vehicle: distilled water + Tween-80
[19] = dose: 200.0 mg/kg/injection, schedule: Q01DX009 (ip), vehicle: distilled water + Tween-80
[20] = dose: 200.0 mg/kg/injection, schedule: Q01DX005 (ip), vehicle: Klucel (hydroxypropylcellulose) (HPC)
[21] = dose: 100.0 mg/kg/injection, schedule: Q04DX002 (ip), vehicle: saline

O=Cc1c(-c2ccccc2)nc2sc(-c3ccc4c(c3)OCO4)nn12
T/C [1]: 102 % of control
T/C [2]: 99 % of control
T/C [3]: 99 % of control

COC(=O)C1=CO[C@@H](OC2OC(CO)C(O)C(O)C2O)[C@H]2[C@@H]1C=C[C@@]21C=C([C@@H](C)O)C(=O)O1 (some centres not stated)
T/C (dose: 1.63 mg/kg/injection, schedule: Q01DX005 (ip), vehicle: Klucel (hydroxypropylcellulose) (HPC)): 99 % of control
T/C (dose: 3.25 mg/kg/injection, schedule: Q01DX005 (ip), vehicle: Klucel (hydroxypropylcellulose) (HPC)): 101 % of control
T/C (dose: 6.5 mg/kg/injection, schedule: Q01DX005 (ip), vehicle: Klucel (hydroxypropylcellulose) (HPC)): 101 % of control
T/C (dose: 13.0 mg/kg/injection, schedule: Q01DX005 (ip), vehicle: Klucel (hydroxypropylcellulose) (HPC)): 95 % of control

Cc1ccc2c(c1)C1(SC(C)C(=O)N1c1ccc(F)cc1)C(=O)N2 (configuration not stated)
T/C [1]: 89 % of control
T/C [2]: 90 % of control
T/C [3]: 87 % of control

S=C(N/N=C/c1ccc2c(c1)OCO2)NC1CCCCC1
T/C [4]: 111 % of control
T/C [5]: 111 % of control
T/C [6]: 116 % of control

CC1CCCC(C)N1CC#CCNC(=O)C1CCC(=O)N1 (configuration not stated)
T/C [7]: 100 % of control
T/C [8]: 102 % of control
T/C [9]: 121 % of control

C#CC1(OC(=O)Nc2cccc(Cl)c2)CCCCC1
T/C (dose: 12.5 mg/kg/injection, schedule: Q01DX009 (ip), vehicle: saline with Tween-80): 91 % of control and 97 % of control
T/C (dose: 25.0 mg/kg/injection, schedule: Q01DX009 (ip), vehicle: saline with Tween-80): 98 % of control and 110 % of control
T/C [10]: 102 % of control and 105 % of control and 90 % of control
T/C [11]: 106 % of control and 108 % of control
T/C [12]: 97 % of control
T/C (dose: 400.0 mg/kg/injection, schedule: Q01DX009 (ip), vehicle: saline with Tween-80): 94 % of control

CNC(=O)Oc1[nH]c(=O)ncc1I
T/C (dose: 50.0 mg/kg/injection, schedule: Q04DX002 (ip), vehicle: saline with Tween-80): 100 % of control
T/C [13]: 108 % of control and 109 % of control and 110 % of control
T/C [14]: 105 % of control and 116 % of control

N#CC1C(=O)NC(=O)C(C#N)C1C(Cl)(Cl)Cl (configuration not stated)
T/C [4]: 100 % of control
T/C [5]: 93 % of control
T/C [6]: 102 % of control

O=[N+]([O-])/C=C/c1c[nH]c2c1ccc1ccccc12
T/C (dose: 100.0 mg/kg/injection, schedule: Q01DX005 (ip), vehicle: saline with Tween-80): 86 % of control
T/C (dose: 200.0 mg/kg/injection, schedule: Q01DX005 (ip), vehicle: saline with Tween-80): 94 % of control

N/C(=N\[N+](=O)[O-])N1CCCCCC1
T/C (dose: 12.5 mg/kg/injection, schedule: Q01DX005 (ip), vehicle: Klucel (hydroxypropylcellulose) (HPC)): 106 % of control
T/C [7]: 100 % of control
T/C [8]: 107 % of control

C#CC(C)OC (configuration not stated)
T/C (dose: 50.0 mg/kg/injection, schedule: Q01DX009 (ip), vehicle: saline): 96 % of control
T/C (dose: 100.0 mg/kg/injection, schedule: Q01DX009 (ip), vehicle: saline): 90 % of control
T/C (dose: 200.0 mg/kg/injection, schedule: Q01DX009 (ip), vehicle: saline): 86 % of control

Cc1ccc(S(=O)(=O)Nc2cc(C)c3c(c2C)CCN=C3)cc1
T/C [15]: 93 % of control
T/C [16]: 91 % of control
T/C [17]: 88 % of control
T/C [18]: 93 % of control
T/C [19]: 91 % of control

CN(C(=O)c1ccc(N)cc1)C1CCN(C2CCCCC2)C1 (configuration not stated)
T/C [4]: 103 % of control
T/C [5]: 101 % of control

NNc1nncc2c1[nH]c1ccccc12
T/C (dose: 1.56 mg/kg/injection, schedule: Q01DX001 (ip), vehicle: saline with Tween-80): 102 % of control
T/C (dose: 3.12 mg/kg/injection, schedule: Q01DX001 (ip), vehicle: saline with Tween-80): 102 % of control
T/C (dose: 6.25 mg/kg/injection, schedule: Q01DX001 (ip), vehicle: saline with Tween-80): 105 % of control
T/C (dose: 12.5 mg/kg/injection, schedule: Q01DX001 (ip), vehicle: saline with Tween-80): 103 % of control

CCN=NNc1ccc([N+](=O)[O-])cc1
T/C [15]: 95 % of control
T/C [16]: 100 % of control
T/C [17]: 105 % of control
T/C [18]: 100 % of control
T/C [19]: 112 % of control

N#C/C(N)=C(\C#N)N=c1c(-c2ccccc2)c1-c1ccccc1
T/C [8]: 102 % of control and 103 % of control
T/C [9]: 103 % of control and 113 % of control
T/C [20]: 109 % of control and 122 % of control

CC1(C)OC2(C)NS(=O)(=O)c3ccc(Cl)cc3N2C1=O (configuration not stated)
T/C [10]: 106 % of control
T/C [11]: 100 % of control
T/C [12]: 98 % of control

CNC(=O)OCc1c(COC(=O)NC)c(C)n(-c2ccc(Cl)c(Cl)c2)c1C
T/C (dose: 12.5 mg/kg/injection, schedule: Q01DX009 (ip), vehicle: saline): 154 % of control and 160 % of control
T/C (dose: 25.0 mg/kg/injection, schedule: Q01DX009 (ip), vehicle: saline): 165 % of control

c1ccc2c(c1)[nH]c1nc3ccncc3nc12
T/C [10]: 90 % of control
T/C [11]: 90 % of control

CCO/C(C)=C(\C#N)C(Cl)=Nc1ccc(OC)cc1
T/C [13]: 108 % of control
T/C [14]: 101 % of control
T/C (dose: 400.0 mg/kg/injection, schedule: Q04DX002 (ip), vehicle: saline with Tween-80): 100 % of control

C/C=C(\NN=NC)c1ccccc1
T/C [14]: 166 % of control

CC(C)([CH2][Sn]([CH3])([Cl])[Cl])c1ccccc1
T/C (dose: 0.79 mg/kg/injection, schedule: Q04DX003 (ip), vehicle: saline with Tween-80): 99 % of control and 101 % of control
T/C (dose: 1.56 mg/kg/injection, schedule: Q04DX003 (ip), vehicle: saline with Tween-80): 99 % of control and 116 % of control and 98 % of control
T/C (dose: 3.12 mg/kg/injection, schedule: Q04DX003 (ip), vehicle: saline with Tween-80): 102 % of control and 111 % of control and 95 % of control
T/C (dose: 6.25 mg/kg/injection, schedule: Q04DX003 (ip), vehicle: saline with Tween-80): 104 % of control and 97 % of control and 98 % of control
T/C (dose: 6.25 mg/kg/injection, schedule: Q04DX003 (ip), vehicle: saline): 106 % of control

CCCCN(CCCC)CC1CC(C(C)(C)C)CCC1O (configuration not stated)
T/C [8]: 91 % of control
T/C [9]: 91 % of control

Cc1c(C)[n+](=O)c2ccc(/C=[N+](/[O-])CCO)cc2n1[O-]
T/C [4]: 99 % of control
T/C [5]: 99 % of control
T/C [6]: 107 % of control

COc1cc2c(cc1OC)C1CC(=O)C(C3(O)C(=O)Nc4ccccc43)CN1CC2 (configuration not stated)
T/C (dose: 100.0 mg/kg/injection, schedule: Q04DX003 (ip), vehicle: Klucel (hydroxypropylcellulose) (HPC)): 99 % of control
T/C (dose: 200.0 mg/kg/injection, schedule: Q04DX003 (ip), vehicle: Klucel (hydroxypropylcellulose) (HPC)): 99 % of control
T/C (dose: 400.0 mg/kg/injection, schedule: Q04DX003 (ip), vehicle: Klucel (hydroxypropylcellulose) (HPC)): 112 % of control

C=Cc1c(C)c2[nH]c1=CC1=NC(=CC3=NC(=CC4=C(C)/C(=C\NO)C(=N4)C=2)C(C)=C3CCC(=O)OC)C(CCC(=O)OC)=C1C
T/C [8]: 95 % of control
T/C [9]: 99 % of control
T/C [20]: 99 % of control

O=C(N1CCC(CCN2CCCC2)CC1)C(O)(c1ccccc1)c1ccccc1
T/C (dose: 25.0 mg/kg/injection, schedule: Q04DX002 (ip), vehicle: saline): 107 % of control
T/C (dose: 50.0 mg/kg/injection, schedule: Q04DX002 (ip), vehicle: saline): 107 % of control
T/C [21]: 106 % of control and 97 % of control

COCCn1cc(F)c(=O)[nH]c1=O
T/C (dose: 30.0 mg/kg/injection, schedule: Q04DX002 (ip), vehicle: saline): 110 % of control
T/C (dose: 60.0 mg/kg/injection, schedule: Q04DX002 (ip), vehicle: saline): 104 % of control
T/C [21]: 115 % of control and 121 % of control
T/C (dose: 120.0 mg/kg/injection, schedule: Q04DX002 (ip), vehicle: saline): 119 % of control
T/C (dose: 200.0 mg/kg/injection, schedule: Q04DX002 (ip), vehicle: saline): 121 % of control
T/C (dose: 240.0 mg/kg/injection, schedule: Q04DX002 (ip), vehicle: saline): 121 % of control
T/C (dose: 400.0 mg/kg/injection, schedule: Q04DX002 (ip), vehicle: saline): 118 % of control and 121 % of control
